Data on two molecules can be found in patent publication US20200113923A1, “DOT1L INHIBITORS FOR USE IN THE TREATMENT OF LEUKEMIA” (Epizyme, Inc., priority 2012, published 2020).

Type in all cases: cell-based, Human
One test concerns EOL-1 cells. Put plainly: EOL-1 cell growth and viability assay (Guava Viacount, 11 days). As to the method: Human leukemia cell line EOL-1 (Catalog # ACC-386) was purchased from DSMZ and were grown in Roswell Park Memorial Institute medium (RPMI) with 10% Fetal Bovine Serum (FBS). Cells were kept in log growth as outlined in the technical data sheet provided by the vendor.
Exponentially growing EOL-1 cells were plated in 96-well plates at a density of 3×10^4 viable cells/well. Each treatment was seeded in triplicate with a final well volume of 150 μLs. Cells were incubated with increasing concentrations of DOT1L inhibitor up to 50 μM. Viable cell number was determined every 3-4 days for 11 days using the Guava Viacount assay (Millipore #4000-0040) and analyzed on a Guava EasyCyte Plus instrument according to the manufacturer's protocol. On the days of cell counts, growth media and inhibitor were replenished and cells maintained in log phase culture by reseeding at a density of 5×10^4 viable cells/well. Total cell number was expressed as split-adjusted viable cells per well. For each cell inhibitor IC50 values were determined from concentration-dependence curves at day 11. […]
The effect of DOT1L inhibitors on leukemia cell growth and viability was investigated. […] The number of viable cells was determined every 3-4 days for 11 days. […] Total cell number was expressed as split-adjusted viable cells per well. […]

A further test deals with H3K79me2. Put plainly: H3K79me2 immunoblot in EOL-1 cells. As to the method: Nuclei were collected by centrifugation at […] for 5 minutes at 4° C. and washed once in Tris/EDTA buffer (pH 7.4). Supernatant was removed and histones extracted for one hour with 60 μl 0.4 N cold sulfuric acid. Extracts were clarified by centrifugation at 10,000 g for 10 minutes at 4° C. and transferred to a fresh microcentrifuge tube containing 600 μl ice cold acetone. Histones were precipitated at −20° C. for 2 hours, pelleted by centrifugation at 10,000 g for 10 minutes and resuspended in 60 μl distilled water (DI water). Total protein of the acid extracts was assessed using a bicinchoninic acid (BCA) protein quantification assay with a bovine serum albumin (BSA) standard (Pierce Biotechnology).
For immunoblot analysis of the H3K79me2 inhibition by DOT1L inhibitor, exponentially growing EOL-1 cells were seeded at 2×10^5 cells/mL and incubated in the presence of increasing concentrations of DOT1L inhibitor for 4 days. […] Signal intensities specific for each methyl-specific antibody was quantified using Odyssey software and normalized to that of the appropriate total histone control signal on the same filter by dividing the methyl-specific antibody signal intensity by the total histone control signal intensity.
Inhibition of methylation of H3K79 was assessed after 4 days of treatment of DOT1L compounds in exponentially growing EOL-1 cells. […]

Another test has as its system HOXA9. Briefly: Quantitative real-time PCR, HOXA9 expression after DOT1L inhibitor treatment. The conditions noted are these: up to 10 μM for 6 days, qPCR. As to the method:
(§1) Exponentially growing EOL-1 cells were plated in a 12 well plate at 2×10^5 cells/mL. […] On day 4, cells were maintained in log phase culture by reseeding at 5×10^5 cells/mL and compound was replenished. At day 6 cells were washed twice with PBS and pelleted by centrifugation at 200×g. Cell pellets were lysed in 300 μL RLT buffer (Qiagen) and total RNA was isolated using the RNeasy total RNA isolation kit (Qiagen 74106). Total RNA (1 μg) was reverse transcribed using a high capacity cDNA reverse transcription kit (Applied Biosystems 4368813). RNA isolation and cDNA synthesis were carried out according to the manufacturer's protocol. Predesigned labeled primer and probe sets for HOXA9 (Hs00365956), MEIS1 (Hs00180020) and FLT3 (Hs00975659) were purchased from Applied Biosystems. Quantitative real-time PCR (qPCR) reactions contained 50 ng cDNA, 1× labeled primer and probe set, and 1× Taqman universal PCR master mix (Applied Biosystems 4304437). Samples were run on a 7900 HT Fast Real Time PCR machine (Applied Biosystems 4351405) with cycling conditions of 2 min 50° C., 10 min 95° C., 40 cycles at 15 sec 95° C. and 1 min 60° C. […] Percent of DMSO control was calculated with the equation (2^−ΔΔCT)*100 where the ΔΔCT is the difference between normalized target gene and DMSO control (ΔCT sample−ΔCT control=ΔΔCT). […]
On the technique in general: Quantitative PCR measures a nucleic acid by following its amplification.

The next test deals with FLT3. Put plainly: Quantitative real-time PCR, FLT3 expression after DOT1L inhibitor treatment. As to conditions: up to 10 μM for 6 days, qPCR. As for the experimental part:
as §1

The test system of a further test is MEIS1. Briefly: Quantitative real-time PCR, MEIS1 expression after DOT1L inhibitor treatment. As to conditions: up to 10 μM for 6 days, qPCR. As to the method:
(§2) Exponentially growing EOL-1 cells were plated in a 12 well plate at 2×10^5 cells/mL. […] On day 4, cells were maintained in log phase culture by reseeding at 5×10^5 cells/mL and compound was replenished. At day 6 cells were washed twice with PBS and pelleted by centrifugation at 200×g. Cell pellets were lysed in 300 μL RLT buffer (Qiagen) and total RNA was isolated using the RNeasy total RNA isolation kit (Qiagen 74106). Total RNA (1 μg) was reverse transcribed using a high capacity cDNA reverse transcription kit (Applied Biosystems 4368813). RNA isolation and cDNA synthesis were carried out according to the manufacturer's protocol. Predesigned labeled primer and probe sets for HOXA9 (Hs00365956), MEIS1 (Hs00180020) and FLT3 (Hs00975659) were purchased from Applied Biosystems. Quantitative real-time PCR (qPCR) reactions contained 50 ng cDNA, 1× labeled primer and probe set, and 1× Taqman universal PCR master mix (Applied Biosystems 4304437). Samples were run on a 7900 HT Fast Real Time PCR machine (Applied Biosystems 4351405) with cycling conditions of 2 min 50° C., 10 min 95° C., 40 cycles at 15 sec 95° C. and 1 min 60° C. […] Percent of DMSO control was calculated with the equation (2^−ΔΔCT)*100 where the ΔΔCT is the difference between normalized target gene and DMSO control (ΔCT sample−ΔCT control=ΔΔCT).

The next test has as its system DOT1L. Briefly: Quantitative real-time PCR, DOT1L expression after DOT1L inhibitor treatment. As to conditions: up to 10 μM for 6 days, qPCR. As for the experimental part:
as §2

Broadly, the IC50 is the concentration that inhibits the measured activity by half. As for `CC(C)N(C[C@H]1O[C@@H](n2cnc3c(N)ncnc32)[C@H](O)[C@@H]1O)[C@H]1C[C@@H](CCc2nc3cc(C(C)(C)C)ccc3[nH]2)C1` [Compound A2, (2R,3R,4S,5R)-2-(6-amino-9H-purin-9-yl)-5-((((1r,3S)-3-(2-(5-(tert-butyl)-1H-benzo[d]imidazol-2-yl)ethyl)cyclobu-tyl)(isopropyl)a-mino)methyl)tet-rahydrofuran-3,4-diol], the “cell growth of EOL-1 cells” value in the test with EOL-1 cells (0.003 μM-50 μM, 11 days, MLL PTD cell line) is “significantly inhibited”. Moreover, the IC50 in the test on EOL-1 cells (Homo sapiens, EOL1, 264 h, concentration-dependence curves at day 11) is 2 nM; in the test with H3K79me2 (Homo sapiens, EOL1, 96 h, 4 days of treatment, read-out: IC50, inhibition of methylation of H3K79 (H3K79me2)), 27 nM. For the same molecule, the “inhibition of methyltransferase activity of DOT1L (H3K79me2 western blot)” value in the test with H3K79me2 (4 days, 0.009 to 10 μM) is “dose-dependent inhibition”. For the same molecule, in the test on HOXA9, the HOXA9 expression result is reported as “reduced in a dose-dependent manner”. The FLT3 expression entry in the test with FLT3 is “reduced in a dose-dependent manner”.
Regarding `CC(C)N(CCCNC(=O)Nc1ccc(C(C)(C)C)cc1)CC1O[C@@H](n2ccc3c(N)ncnc32)[C@H](O)[C@@H]1O` (stereo partly shown) [Compound T], in the test on HOXA9, the HOXA9 expression entry is “reduced in a dosage-dependent manner”. For the same molecule, the FLT3 expression result with FLT3 is “reduced in a dosage-dependent manner”. Moreover, the MEIS1 expression result in the test with MEIS1 is “reduced in a dosage-dependent manner”. For the same molecule, the DOT1L gene expression entry in the test on DOT1L is “not reduced”.
